The source of these data is patent EP0598011B1, “ECDYSTEROID DEPENDENT REGULATION OF GENES IN MAMMALIAN CELLS” (GENENTECH, INC., priority 1991, dated 1993).

In the experiment the target is T1, DHR23α (Drosophila melanogaster, UniProt P34021).
T1 construct: To isolate the full-length DHR23α clones; expressed in transfected cells; host or cells: human 293 cells
T1 sequence (P34021 1-878): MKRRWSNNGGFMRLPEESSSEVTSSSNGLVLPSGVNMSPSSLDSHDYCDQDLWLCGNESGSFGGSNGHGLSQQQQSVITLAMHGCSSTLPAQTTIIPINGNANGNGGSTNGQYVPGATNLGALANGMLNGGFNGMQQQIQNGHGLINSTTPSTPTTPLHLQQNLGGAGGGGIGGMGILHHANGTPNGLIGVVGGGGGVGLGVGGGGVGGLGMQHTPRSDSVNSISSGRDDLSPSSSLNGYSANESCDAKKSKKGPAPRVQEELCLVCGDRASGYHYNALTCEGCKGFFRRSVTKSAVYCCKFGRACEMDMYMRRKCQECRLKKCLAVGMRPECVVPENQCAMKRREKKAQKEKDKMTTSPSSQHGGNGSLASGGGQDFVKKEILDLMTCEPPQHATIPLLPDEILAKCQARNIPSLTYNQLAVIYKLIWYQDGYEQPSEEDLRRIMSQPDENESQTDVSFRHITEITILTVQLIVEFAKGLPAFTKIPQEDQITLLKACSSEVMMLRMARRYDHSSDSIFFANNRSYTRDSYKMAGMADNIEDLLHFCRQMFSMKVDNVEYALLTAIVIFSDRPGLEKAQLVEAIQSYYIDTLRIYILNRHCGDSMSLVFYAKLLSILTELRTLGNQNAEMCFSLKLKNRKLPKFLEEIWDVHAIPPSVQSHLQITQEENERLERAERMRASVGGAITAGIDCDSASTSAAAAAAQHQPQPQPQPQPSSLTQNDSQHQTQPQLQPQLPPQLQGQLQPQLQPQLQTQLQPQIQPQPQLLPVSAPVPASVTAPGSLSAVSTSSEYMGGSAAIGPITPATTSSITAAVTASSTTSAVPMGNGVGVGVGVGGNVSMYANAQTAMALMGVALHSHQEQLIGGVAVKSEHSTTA
T1 sequence (P19793 1-462 partner): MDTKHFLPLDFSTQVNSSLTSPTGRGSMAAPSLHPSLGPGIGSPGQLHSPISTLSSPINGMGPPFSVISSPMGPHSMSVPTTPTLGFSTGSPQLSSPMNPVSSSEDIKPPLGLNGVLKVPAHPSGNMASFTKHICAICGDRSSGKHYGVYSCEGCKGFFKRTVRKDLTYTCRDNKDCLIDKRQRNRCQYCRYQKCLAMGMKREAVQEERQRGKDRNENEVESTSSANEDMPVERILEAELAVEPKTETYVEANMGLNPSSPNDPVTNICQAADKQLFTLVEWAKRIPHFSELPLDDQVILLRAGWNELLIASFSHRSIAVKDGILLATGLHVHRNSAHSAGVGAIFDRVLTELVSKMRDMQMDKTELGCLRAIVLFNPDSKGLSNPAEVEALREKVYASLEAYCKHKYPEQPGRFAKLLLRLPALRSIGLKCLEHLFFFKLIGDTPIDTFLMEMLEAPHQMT
The experiment in a line: DHR23α transactivation of EcRE (Ec4M-77CO) CAT reporter in transfected human 293 cells. The experiment is classed as cell-based. The note with it: pRSV.DHR23α + pEc4M-77CO (EcRE) CAT reporter, ligand 1 µM, 48 hrs. The method, then:
Figure. 2. […] Human 293 cells were cotransfected with 2.5 µg of the expression plasmid pRSV.DHR23α or the parental expression plasmid pRSV (Control) and 0.5 µgs of the reporter plasmid pEc4M-77CO (EcRE) or pG4M-77CO (GRE). As a control for transfection efficiency, 0.5 µgs of the control plasmid pRSV.hGH was included in the transfection mixture. After transfection, cells were treated without (-) or with alpha-ecdysone (alpha), 20-OH ecdysone (20-OH), polypodine B (ppB), ponasterone A (ponA) or muristeroine A (murA). CAT extracts were harvested 48 hrs after transfection and assayed. The values were normalized to the expression of hGH and the average values of three independent experiments are shown. The "fold induction" represents the level of expression of the reporter gene in cells incubated with hormone divided by the expression of that reporter gene in extracts from cells incubated in the absence of added ligand.
I determined whether DHR23α could function in mammalian cells treated with ecdysteroids to enhance the transcription of a reporter gene containing EcREs linked to the murine mammary tumor virus (MTV) promoter and chloramphenicol acetyltransferase (CAT) gene. Human 293 cells were cotransfected with an RSV-based expression vector that encodes DHR23a and the reporter gene Ec4M-77CO that contains 4 copies of an ecdysone response element (EcRE) from the Drosophila HSP27 promoter (G. Riddihough and H. R. B. Pelham, EMBO J. 6, 3729 [1987]) linked to an MTV promoter-CAT construct.
Human 293 cells were cotransfected with 2.5 µg of the expression plasmid pRSV.DHR23α or the parental expression plasmid pRSV (Control) and 0.5 µgs of the reporter plasmid pEc4M-77CO (EcRE) or pG4M-77CO (GRE). As a control for transfection efficiency, 0.5 µgs of the control plasmid pRSV.hGH was included in the transfection mixture. After transfection, cells were treated without (-) or with alpha-ecdysone (alpha), 20-OH ecdysone (20-OH), polypodine B (ppB), ponasterone A (ponA) or muristeroine A (murA). All candidate ligands were added at a concentration of 1 µM. CAT extracts were harvested 48 hrs after transfection, and assays were performed as described (D. R. Cavener, Nucl. Acids Res. 15, 1353-1361 [1987]). The values were normalized to the expression of hGH and the average values of three independent experiments are shown in Figure 2. The "fold induction" represents the level of expression of the reporter gene in cells incubated with hormone divided by the expression of that reporter gene in extracts from cells incubated in the absence of added ligand.
Cells were transfected with the DHR23α expression vector and Ec4M-77CO reporter gene and treated without (-) or with the following hormones (1 µM): muristerone A (mur A) dexamethasone (Dex) 17β-estradiol (E2), aldosterone (Aldo), corticosterone (Cort) hydroxycorticosterone (OH-Cort) thyroid hormone (T3), promegestone (Promeg) or 1,25-dihydroxy vitamin D3 (VD3). Reporter gene activity was determined as described above for Figure 2.

With `CC(C)CCC(O)[C@](C)(O)[C@H]1CC[C@@]2(O)C3=CC(=O)C4(O)CC(O)C(O)C[C@]4(C)[C@H]3C(O)C[C@]12C` (some centres unmarked) [muristerone A, 2,3,5,11,14,20,22-Heptahydroxy-7-cholesten-6-one], the “agonist for DHR23α in mammalian cells (expression of the reporter gene)” value is given as “markedly increased”. Besides, the “agonist for DHR23α in mammalian cells (expression of the reporter gene)” value (listed as muristerone) is “strong agonist”.
